Laboratory results: patent publication US11168093B2, “Thienopyridine inhibitors of RIPK2” (Celgene Corporation, priority 2018, dated 2021)

Molecular target: RIPK2 enzyme (Homo sapiens (Human), UniProt O43353)
Experiment: RIPK2 inhibition assay, TR-FRET LanthaScreen Tracer 199 screening assay
Assay type: binding
Conditions: 5 nM RIPK2 enzyme, Tracer 199 at 50 nM, Eu-anti-His Antibody at 2 nM, 1 hour incubation
Protocol: All data was collected using a standard TR-FRET screening assay: LanthaScreen Tracer 199 at 50 nM, Eu-anti-His Antibody at 2 nM, 5 nM RIPK2 enzyme, and 1× Kinase Reaction Buffer. There was a 1 hour incubation prior to read. TR-FRET signal of the interaction (340Ex/665Em/615Em) was read at room temperature with standard setting. Background was subtracted of wells containing no enzyme. Percent inhibition was based on uninhibited controls log (inhibitor) vs. response. Variable slope equation was used with no constraints: Log Y=Bottom+(Top−Bottom)/(1+10^((Log IC50−X)*Hill Slope)).
The compound numbers correspond to the compound numbers above.

Sequence of RIPK2 enzyme (O43353 whole entry): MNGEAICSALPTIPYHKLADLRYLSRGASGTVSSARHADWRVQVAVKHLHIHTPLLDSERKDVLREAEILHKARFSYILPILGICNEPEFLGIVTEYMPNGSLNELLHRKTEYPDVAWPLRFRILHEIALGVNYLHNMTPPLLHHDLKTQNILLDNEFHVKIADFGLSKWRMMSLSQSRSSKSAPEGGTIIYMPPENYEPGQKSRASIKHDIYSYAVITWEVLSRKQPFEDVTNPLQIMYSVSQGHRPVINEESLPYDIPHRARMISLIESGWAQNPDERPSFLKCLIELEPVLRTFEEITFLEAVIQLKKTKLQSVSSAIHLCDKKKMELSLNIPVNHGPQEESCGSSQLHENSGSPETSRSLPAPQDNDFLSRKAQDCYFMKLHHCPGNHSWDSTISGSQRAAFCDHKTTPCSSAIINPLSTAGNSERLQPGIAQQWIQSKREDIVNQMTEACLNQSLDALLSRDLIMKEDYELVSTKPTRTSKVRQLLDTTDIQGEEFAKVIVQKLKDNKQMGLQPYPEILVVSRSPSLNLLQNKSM

IC50 | SMILES
≤ 10 nM | CC(=O)N1CCC=C(c2cc3c(Nc4ccc5scnc5c4)ccnc3s2)CC1 [Example 107, 1-(4-(4-(benzo[d]thiazol-5-ylamino)thieno[2,3-b]pyridin-2-yl)-2,3,6,7-tetrahydro-1H-azepin-1-yl)ethan-1-one]
10 to 20 nM | CC1C(c2cc3c(Nc4ccc5scnc5c4)ccnc3s2)CCCN1C1COC1 (stereo not shown) [Example 17, N-(2-(2-methyl-1-(oxetan-3-yl)piperidin-3-yl)thieno[2,3-b]pyridin-4-yl)benzo[d]thiazol-5-amine]
20 to 50 nM | CCN1CCC(c2cc3c(Nc4cc5ncsc5cc4F)ccnc3s2)C1(C)C (stereo not shown) [Example 79, N-(2-(1-ethyl-2,2-dimethylpyrrolidin-3-yl)thieno[2,3-b]pyridin-4-yl)-6-fluorobenzo[d]thiazol-5-amine]
≤ 10 nM | CCN1CCC(c2cc3c(Nc4ccc5scnc5c4)ccnc3s2)C1(C)C (stereo not shown) [Example 37, N-(2-(1-ethyl-2,2-dimethylpyrrolidin-3-yl)thieno[2,3-b]pyridin-4-yl)benzo[d]thiazol-5-amine]
≤ 10 nM | C[C@H]1[C@H](c2cc3c(Nc4c(F)cc5scnc5c4F)ccnc3s2)CCCN1C [Example 71a, N-(2-((2S,3R)-1,2-dimethylpiperidin-3-yl)thieno[2,3-b]pyridin-4-yl)-4,6-difluorobenzo[d]thiazol-5-amine]
≤ 10 nM | CN1CCCC(c2cc3c(Nc4ccc5scnc5c4)ccnc3s2)CC1 (stereo not shown) [Example 109, N-(2-(1-methylazepan-4-yl)thieno[2,3-b]pyridin-4-yl)benzo[d]thiazol-5-amine]
≤ 10 nM | C[C@@H]1NCCC=C1c1cc2c(Nc3cc4ncsc4cc3F)ccnc2s1 [Example 49b, 6-fluoro-N-(2-(2-methyl-1,2,5,6-tetrahydropyridin-3-yl)thieno[2,3-b]pyridin-4-yl)benzo[d]thiazol-5-amine]
≤ 10 nM | C1=C(c2cc3c(Nc4ccc5scnc5c4)ccnc3s2)CCNCC1 [Example 105, N-(2-(2,3,6,7-tetrahydro-1H-azepin-4-yl)thieno[2,3-b]pyridin-4-yl)benzo[d]thiazol-5-amine]
10 to 20 nM | C[C@@H]1NCCC[C@H]1c1cc2c(Nc3c(F)cc4scnc4c3F)ccnc2s1 [Example 68a, 4,6-difluoro-N-(2-((2S,3R)-2-methylpiperidin-3-yl)thieno[2,3-b]pyridin-4-yl)benzo[d]thiazol-5-amine]
≤ 10 nM | CC1(C)NCCC1c1cc2c(Nc3ccc4scnc4c3F)ccnc2s1 (stereo not shown) [Example 90, N-(2-(2,2-dimethylpyrrolidin-3-yl)thieno[2,3-b]pyridin-4-yl)-4-fluorobenzo[d]thiazol-5-amine]
20 to 50 nM | CCN1CCC(c2cc3c(Nc4c(F)cc5scnc5c4F)ccnc3s2)C12CCOC2 (stereo not shown) [Example 101, N-(2-(1-ethyl-7-oxa-1-azaspiro[4.4]nonan-4-yl)thieno[2,3-b]pyridin-4-yl)-4,6-difluorobenzo[d]thiazol-5-amine]
≥ 50 nM | CC1NCCCC1c1cc2c(Nc3cc4ncsc4cc3F)c(F)cnc2s1 (stereo not shown) [Example 122a, 6-fluoro-N-(5-fluoro-2-(2-methylpiperidin-3-yl)thieno[2,3-b]pyridin-4-yl) benzo[d]thiazol-5-amine]
≤ 10 nM | COCCN1CCC=C(c2cc3c(Nc4ccc5scnc5c4)ccnc3s2)[C@H]1C [Example 12a, N-(2-(1-(2-methoxyethyl)-2-methyl-1,2,5,6-tetrahydropyridin-3-yl)thieno[2,3-b]pyridin-4-yl)benzo[d]thiazol-5-amine]
≤ 10 nM | C1=C(c2cc3c(Nc4ccc5scnc5c4)ccnc3s2)C2(COC2)NC1 [Example 39, N-(2-(2-oxa-5-azaspiro[3.4]oct-7-en-8-yl)thieno[2,3-b]pyridin-4-yl)benzo[d]thiazol-5-amine]
≤ 10 nM | CCN1CCC(c2cc3c(Nc4ccc5scnc5c4)ccnc3s2)C1C (stereo not shown) [Example 30, N-(2-(1-ethyl-2-methylpyrrolidin-3-yl)thieno[2,3-b]pyridin-4-yl)benzo[d]thiazol-5-amine]
≤ 10 nM | CC1C(c2cc3c(Nc4ccc5scnc5c4)ccnc3s2)CCCN1CCCN (stereo not shown) [Example 18, N-(2-(1-(3-aminopropyl)-2-methylpiperidin-3-yl)thieno[2,3-b]pyridin-4-yl)benzo[d]thiazol-5-amine]
≤ 10 nM | C[C@H]1[C@@H](c2cc3c(Nc4ccc5scnc5c4F)ccnc3s2)CCCN1C [Example 61, N-(2-((2S,3S)-1,2-dimethylpiperidin-3-yl)thieno[2,3-b]pyridin-4-yl)-4-fluorobenzo[d]thiazol-5-amine]
≤ 10 nM | C[C@H]1NCCC[C@H]1c1cc2c(Nc3cc4ncsc4cc3F)ccnc2s1 [Example 50b, 6-fluoro-N-(2-((2R)-2-methylpiperidin-3-yl)thieno[2,3-b]pyridin-4-yl)benzo[d]thiazol-5-amine]
20 to 50 nM | CC1NCCCC1c1cc2c(Nc3cc4ncsc4cc3F)c(F)cnc2s1 (single isomer, unassigned) [Example 122b, 6-fluoro-N-(5-fluoro-2-(2-methylpiperidin-3-yl)thieno[2,3-b]pyridin-4-yl) benzo[d]thiazol-5-amine]
10 to 20 nM | C[C@H]1NCCC=C1c1cc2c(Nc3cc4ncsc4cc3F)ccnc2s1 [Example 49a, 6-fluoro-N-(2-(2-methyl-1,2,5,6-tetrahydropyridin-3-yl)thieno[2,3-b]pyridin-4-yl)benzo[d]thiazol-5-amine]
≤ 10 nM | CC1NCCCC1c1cc2c(Nc3ccc4scnc4c3)ccnc2s1 (stereo not shown) [Example 3, N-(2-(2-methylpiperidin-3-yl)thieno[2,3-b]pyridin-4-yl)benzo[d]thiazol-5-amine]
≤ 10 nM | CC1C(c2cc3c(Nc4ccc5scnc5c4)ccnc3s2)CCN1C (stereo not shown) [Example 28, N-(2-(1,2-dimethylpyrrolidin-3-yl)thieno[2,3-b]pyridin-4-yl)benzo[d]thiazol-5-amine]
≤ 10 nM | C1=C(c2cc3c(Nc4ccc5scnc5c4)ccnc3s2)C2(CCOC2)NC1 (stereo not shown) [Example 40, N-(2-(7-oxa-1-azaspiro[4.4]non-3-en-4-yl)thieno[2,3-b]pyridin-4-yl)benzo[d]thiazol-5-amine]
≤ 10 nM | CCN1CCC[C@H](c2cc3c(Nc4c(F)cc5scnc5c4F)ccnc3s2)[C@@H]1C [Example 74b, N-(2-((2S,3S)-1-ethyl-2-methylpiperidin-3-yl)thieno[2,3-b]pyridin-4-yl)-4,6-difluorobenzo[d]thiazol-5-amine]
20 to 50 nM | CC1(C)C(c2cc3c(Nc4cc5ncsc5cc4F)ccnc3s2)CCN1CCO (stereo not shown) [Example 80, 2-(3-(4-((6-fluorobenzo[d]thiazol-5-yl)amino)thieno[2,3-b]pyridin-2-yl)-2,2-dimethyl-pyrrolidin-1-yl)ethan-1-ol]
≤ 10 nM | CC1(C)C(c2cc3c(Nc4ccc5scnc5c4)ccnc3s2)CCN1CCO (stereo not shown) [Example 38, 2-(3-(4-(benzo[d]thiazol-5-ylamino)thieno[2,3-b]pyridin-2-yl)-2,2-dimethylpyrrolidin-1-yl)ethan-1-ol]
≥ 50 nM | CC1C(c2cc3c(Nc4cc5ncsc5cc4F)c(F)cnc3s2)CCCN1C (stereo not shown) [Example 123a, N-(2-(1,2-dimethylpiperidin-3-yl)-5-fluorothieno[2,3-b]pyridin-4-yl)-6-fluorobenzo[d]thiazol-5-amine]

SMILES | IC50
CC1C(c2cc3c(Nc4ccc5scnc5c4)ccnc3s2)CCCN1CCF (stereo not shown) [Example 14, N-(2-(1-(2-fluoroethyl)-2-methylpiperidin-3-yl)thieno[2,3-b]pyridin-4-yl)benzo[d]thiazol-5-amine] | ≤ 10 nM
